Measurements as given in PMC7732027 (Bioorganic & medicinal chemistry letters, 2019).

System: influenza A virus PR8-GLuc (H1N1) strain
Type: cell-based

Question: For `Cl.O=C(O)[C@H]1C2CCC(C3CC32)[C@@H]1Nc1nc(-c2c[nH]c3ncc(F)cc23)ncc1F` (some centres unmarked) [13b], which “decrease of potency versus Pimodivir” value is on record?
Answer: 12 times

Question: `Cl.O=C(O)C12CC3CC(CC(Nc4nc(-c5c[nH]c6ncc(F)cc56)ncc4F)(C3)C1)C2` [13d] was tested. Which “decrease of potency versus Pimodivir” value did it give?
Answer: 230 times
